Source: ChEMBL document CHEMBL3045443, “Mode for Herbicidal Action of 2-Amino-3-chloro-1,4-naphthoquinone (ACN)” (Biosci Biotechnol Biochem, 1994)

How the values were obtained:
Type in all cases: functional
Scenedesmus acutus [1] = test: Herbicidal activity against Scenedesmus acutus assessed as protoporphyrin-IX content per ml of packed-cell volume at 10^-5 M autotrophically for 20 hr by phytotoxicity assay (reference value: 2 nM/ml pcv)
Scenedesmus acutus [2] = test: Herbicidal activity against Scenedesmus acutus assessed as growth measured as packed-cell volume per ml of culture at 10^-6 M heterotrophically for 20 hr by phytotoxicity assay (reference value: 1.5 ul pcv/ml)
Scenedesmus acutus [3] = test: Herbicidal activity against Scenedesmus acutus assessed as ethane production per ml of packed-cell volume at 10^-6 M autotrophically for 20 hr by phytotoxicity assay (reference value: 0.28 nM/ml pcv)
Scenedesmus acutus [4] = test: Herbicidal activity against Scenedesmus acutus assessed as ethane production per ml of packed-cell volume at 10^-4 M autotrophically for 20 hr by phytotoxicity assay (reference value: 0.28 nM/ml pcv)
Scenedesmus acutus [5] = test: Herbicidal activity against Scenedesmus acutus assessed as ethane production per ml of packed-cell volume at 10^-5 M autotrophically for 20 hr by phytotoxicity assay (reference value: 0.28 nM/ml pcv)
Scenedesmus acutus [6] = test: Herbicidal activity against Scenedesmus acutus assessed as chlorophyll content per ml of packed-cell volume at 10^-4 M heterotrophically for 20 hr by phytotoxicity assay (reference value: 6.52 mg/ml pcv)
Scenedesmus acutus [7] = test: Herbicidal activity against Scenedesmus acutus assessed as packed-cell volume per ml of culture at 10^-6 M autotrophically for 20 hr by phytotoxicity assay (reference value: 6.6 ul pcv/ml)
Scenedesmus acutus [8] = test: Herbicidal activity against Scenedesmus acutus assessed as chlorophyll content per ml of packed-cell volume at 10^-5 M autotrophically for 20 hr by phytotoxicity assay (reference value: 5.32 mg/ml pcv)
Scenedesmus acutus [9] = test: Herbicidal activity against Scenedesmus acutus assessed as chlorophyll content per ml of packed-cell volume at 10^-5 M heterotrophically for 20 hr by phytotoxicity assay (reference value: 6.52 mg/ml pcv)
Scenedesmus acutus [10] = test: Herbicidal activity against Scenedesmus acutus assessed as protoporphyrin-IX content per ml of packed-cell volume at 10^-4 M autotrophically for 20 hr by phytotoxicity assay (reference value: 2 nM/ml pcv)
Scenedesmus acutus [11] = test: Herbicidal activity against Scenedesmus acutus assessed as growth measured as packed-cell volume per ml of culture at 10^-5 M heterotrophically for 20 hr by phytotoxicity assay (reference value: 1.5 ul pcv/ml)
Scenedesmus acutus [12] = test: Herbicidal activity against Scenedesmus acutus assessed as packed-cell volume per ml of culture at 10^-5 M autotrophically for 20 hr by phytotoxicity assay (reference value: 6.6 ul pcv/ml)
Scenedesmus acutus [13] = test: Herbicidal activity against Scenedesmus acutus assessed as chlorophyll content per ml of packed-cell volume at 10^-6 M autotrophically for 20 hr by phytotoxicity assay (reference value: 5.32 mg/ml pcv)
Scenedesmus acutus [14] = test: Herbicidal activity against Scenedesmus acutus assessed as protoporphyrin-IX content per ml of packed-cell volume at 10^-6 M autotrophically for 20 hr by phytotoxicity assay (reference value: 2 nM/ml pcv)
Scenedesmus acutus [15] = test: Herbicidal activity against Scenedesmus acutus assessed as chlorophyll content per ml of packed-cell volume at 10^-4 M autotrophically for 20 hr by phytotoxicity assay (reference value: 5.32 mg/ml pcv)
Scenedesmus acutus [16] = test: Herbicidal activity against Scenedesmus acutus assessed as chlorophyll content per ml of packed-cell volume at 10^-6 M heterotrophically for 20 hr by phytotoxicity assay (reference value: 6.52 mg/ml pcv)
Scenedesmus acutus [17] = test: Herbicidal activity against Scenedesmus acutus assessed as growth measured as packed-cell volume per ml of culture at 10^-4 M heterotrophically for 20 hr by phytotoxicity assay (reference value: 1.5 ul pcv/ml)
Scenedesmus acutus [18] = test: Herbicidal activity against Scenedesmus acutus assessed as packed-cell volume per ml of culture at 10^-4 M autotrophically for 20 hr by phytotoxicity assay (reference value: 6.6 ul pcv/ml)
Scenedesmus acutus [19] = test: Herbicidal activity against Scenedesmus acutus assessed as chlorophyll content per ml of packed-cell volume at 10^-7 M heterotrophically for 20 hr by phytotoxicity assay (reference value: 6.52 mg/ml pcv)
Scenedesmus acutus [20] = test: Herbicidal activity against Scenedesmus acutus assessed as growth measured as packed-cell volume per ml of culture at 10^-7 M heterotrophically for 20 hr by phytotoxicity assay (reference value: 1.5 ul pcv/ml)

| SMILES | Activity (Scenedesmus acutus [1]) [nM] | Activity (Scenedesmus acutus [2]) [µL] | Activity (Scenedesmus acutus [3]) [nM] | Activity (Scenedesmus acutus [4]) [nM] | Activity (Scenedesmus acutus [5]) [nM] | Activity (Scenedesmus acutus [6]) [mg] | Activity (Scenedesmus acutus [7]) [µL] | Activity (Scenedesmus acutus [8]) [mg] | Activity (Scenedesmus acutus [9]) [mg] | Activity (Scenedesmus acutus [10]) [nM] | Activity (Scenedesmus acutus [11]) [µL] | Activity (Scenedesmus acutus [12]) [µL] | Activity (Scenedesmus acutus [13]) [mg] | Activity (Scenedesmus acutus [14]) [nM] | Activity (Scenedesmus acutus [15]) [mg] | Activity (Scenedesmus acutus [16]) [mg] | Activity (Scenedesmus acutus [17]) [µL] | Activity (Scenedesmus acutus [18]) [µL] | Activity (Scenedesmus acutus [19]) [mg] | Activity (Scenedesmus acutus [20]) [µL] |
| --- | --- | --- | --- | --- | --- | --- | --- | --- | --- | --- | --- | --- | --- | --- | --- | --- | --- | --- | --- | --- |
| NC1=C(Cl)C(=O)c2ccccc2C1=O | 2 | 1.3 | 0.23 | 10.43 | 7.51 | 4.76 | 4.2 | 0.07 | 4.76 | 3.5 | 1.1 | 2.6 | 3.67 | 2 | 0 | 5.22 | 1.1 | 2.1 |  |  |
| O=C1C2=C(CCCC2)C(=O)N1c1ccc(Cl)cc1 [CHLOROPHTHALIUM] |  | 1.1 | 8.77 |  |  |  | 2.8 | 0.17 | 2.85 |  | 1 | 2.4 | 0.25 | 23.5 |  | 4.9 |  |  | 6.65 | 1.3 |
| CCC(C)c1cc([N+](=O)[O-])cc([N+](=O)[O-])c1O (stereo unspecified) [DINOSEB] | 2 |  | 0.18 |  | 0.34 |  | 6.6 | 5.91 |  |  |  | 5.3 | 5.5 | 1.5 |  |  |  |  |  |  |
| N#Cc1cc(I)c(O)c(I)c1 [IOXYNIL] | 2 |  | 0.22 |  | 0.3 |  | 6.5 | 5.82 |  |  |  | 5.7 | 5.71 | 2.5 |  |  |  |  |  |  |
